Experiments:
Test in all cases: Bliss excess, mean over the matrix (fraction); higher = more synergy
[1] = tested on: HSC-2 (Oral Cavity Carcinoma)
Method in brief: (§1)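 Bliss excess equals the observed combination effect minus the expected value EA + EB − EA·EB, where EA and EB are the effects of each agent alone. Combination Emax is the second-highest inhibition within the matrix. Inhibition was scaled from CellTiter-Glo 2.0 luminescence, with 0 set by vehicle wells and 1 by blank wells, after 72 hours of two-drug dosing of cells plated in 1536-well plates.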

[2] = tested on: EMC-BAC-2 (Non-Small Cell Lung Carcinoma)
Method in brief: as §1

[3] = tested on: NH-12 (Neuroblastoma)
Method in brief: as §1

[4] = tested on: GI-1 (Glioblastoma)
Method in brief: as §1

[5] = tested on: KYSE-50 (Esophageal Squamous Cell Carcinoma)
Method in brief: as §1

[6] = tested on: MFE-319 (Endometrial Carcinoma)
Method in brief: as §1

[7] = tested on: NCI-H513 (Other Solid Carcinomas)
Method in brief: as §1

[8] = tested on: HC-1 (Other Blood Carcinomas)
Method in brief: as §1

[9] = tested on: EW-13 (Ewing's Sarcoma)
Method in brief: as §1

[10] = tested on: H-EMC-SS (Chondrosarcoma)
Method in brief: as §1

[11] = tested on: PF-382 (T-Lymphoblastic Leukemia)
Method in brief: as §1

[12] = tested on: LC4-1 (B-Lymphoblastic Leukemia)
Method in brief: as §1

[13] = tested on: ASH-3 (Thyroid Gland Carcinoma)
Method in brief: as §1

[14] = tested on: KYSE-150 (Esophageal Squamous Cell Carcinoma)
Method in brief: as §1

[15] = tested on: KINGS-1 (Low Grade Glioma)
Method in brief: as §1

[16] = tested on: KLE (Endometrial Carcinoma)
Method in brief: as §1

[17] = tested on: NCI-H2405 (Lung Adenocarcinoma)
Method in brief: as §1

[18] = tested on: NB7 (Neuroblastoma)
Method in brief: as §1

[19] = tested on: BV-173 (Chronic Myelogenous Leukemia)
Method in brief: as §1

[20] = tested on: JHH-7 (Hepatocellular Carcinoma)
Method in brief: as §1

Row | SMILES | Bliss excess [1] | Bliss excess [2] | Bliss excess [3] | Bliss excess [4] | Bliss excess [5] | Bliss excess [6] | Bliss excess [7] | Bliss excess [8] | Bliss excess [9] | Bliss excess [10] | Bliss excess [11] | Bliss excess [12] | Bliss excess [13] | Bliss excess [14] | Bliss excess [15] | Bliss excess [16] | Bliss excess [17] | Bliss excess [18] | Bliss excess [19] | Bliss excess [20]
1 | NC1(C(=O)N[C@@H](CCO)c2ccc(Cl)cc2)CCN(c2ncnc3[nH]ccc23)CC1 [Capivasertib] + CC(=O)c1c(C)c2cnc(Nc3ccc(N4CCNCC4)cn3)nc2n(C2CCCC2)c1=O [Palbociclib] (first compound max 10 µM, 7x7, partner max 10 µM) | -0.0207 | -0.0727 | 0.0124 | 0.0117 | -0.0129 | -0.0339 | -0.0061 | -0.0705 | -0.0161 | -0.0375 | -0.0151 | 0.0772 | -0.0235 | 0.0446 | 0.0102 | -0.0214 | -0.0405 | 0.0291 | -0.0452 | -0.0238
2 | NC1(C(=O)N[C@@H](CCO)c2ccc(Cl)cc2)CCN(c2ncnc3[nH]ccc23)CC1 [Capivasertib] + CC(C)n1c(=O)n(C)c2cnc3cc(F)c(-c4ccc(OCCCN5CCCCC5)nc4)cc3c21 [AZD1390] (first compound max 10 µM, 7x7, partner max 0.3 µM) | -0.0117 | -0.0761 | -0.134 | -0.0226 | -0.0723 | -0.0921 | -0.0506 | -0.0706 | -0.024 | -0.0296 | -0.0211 | 0.0461 | -0.0478 | 0.0164 | -0.0398 | -0.0455 | -0.0513 | 0.0125 | -0.0639 | -0.0584
3 | NC1(C(=O)N[C@@H](CCO)c2ccc(Cl)cc2)CCN(c2ncnc3[nH]ccc23)CC1 [Capivasertib] + CCN(CCO)CCCOc1ccc2c(Nc3cc(CC(=O)Nc4cccc(F)c4)[nH]n3)ncnc2c1 [AZD2811] (first compound max 10 µM, 7x7, partner max 1 µM) | 0.0572 | -0.0124 | -0.0439 | 0.022 | 0.0278 | -0.107 | -0.0479 | -0.0564 | 0.007 | -0.0105 | -0.0497 | -0.0221 | -0.0147 | -0.011 | -0.0012 | -0.0611 | -0.0535 | 0.0377 | -0.031 | -0.0692
4 | NC1(C(=O)N[C@@H](CCO)c2ccc(Cl)cc2)CCN(c2ncnc3[nH]ccc23)CC1 [Capivasertib] + COc1nnc2ccc(N3CCC(c4ccc(OCCN5CCN(C)C(=O)[C@H]5C)cc4)CC3)nn12 [AZD5153] (first compound max 10 µM, 7x7, partner max 1 µM) | 0.0456 | 0.0396 | 0.0177 | 0.0578 | -0.0054 | 0.0499 | -0.0222 | 0.0365 | 0.0153 | 0.0011 | 0.0451 | 0.002 | 0.0231 | 0.0618 | -0.0017 | -0.0329 | 0.0138 | -0.0483 | -0.0607 | 0.0156
5 | NC1(C(=O)N[C@@H](CCO)c2ccc(Cl)cc2)CCN(c2ncnc3[nH]ccc23)CC1 [Capivasertib] + C[C@@H]1COCCN1C2=NC(=NC(=C2)C3(CC3)[S@](=N)(=O)C)C4=C5C=CNC5=NC=C4 [AZD6738] (first compound max 10 µM, 7x7, partner max 10 µM) | -0.0096 | 0.0152 | -0.0643 | -0.0606 | -0.0673 | -0.122 | -0.0601 | -0.0166 | 0.0091 | -0.0022 | -0.0059 | 0.0099 | -0.0468 | -0.0545 | -0.0197 | -0.0692 | -0.0513 | -0.0518 | -0.0271 | -0.0404
6 | NC1(C(=O)N[C@@H](CCO)c2ccc(Cl)cc2)CCN(c2ncnc3[nH]ccc23)CC1 [Capivasertib] + Cn1cnc2c(F)c(Nc3ccc(Br)cc3Cl)c(C(=O)NOCCO)cc21 [Selumetinib] (first compound max 10 µM, 7x7, partner max 10 µM) | 0.0675 | -0.0445 | 0.0644 | 0.0399 | -0.036 | 0.0088 | -0.0383 | 0.0123 | 0.0097 | 0.0635 | 0.0266 | 0.147 | 0.064 | 0.0676 | 0.0272 | -0.011 | 0.0153 | -0.0045 | 0.0219 | -0.0455
7 | Cc1nc(Nc2ncc(C(=O)Nc3c(C)cccc3Cl)s2)cc(N2CCN(CCO)CC2)n1 [Dasatinib] + CC(=O)Nc1cccc(-n2c(=O)n(C3CC3)c(=O)c3c(Nc4ccc(I)cc4F)n(C)c(=O)c(C)c32)c1 [Trametinib] (first compound max 2 µM, 7x7, partner max 1 µM) | -0.0238 | -0.0795 | -0.0102 | 0.0396 | 0.043 | -0.108 | 0.0273 | -0.0813 | -0.0443 | 0.0331 | 0.198 | -0.0543 | 0.0994 | -0.035 | -0.0416 | -0.0052 | 0.0721 | 0.0262 | -0.179 | -0.0394
8 | COc1cccc2c1C(=O)c1c(O)c3c(c(O)c1C2=O)C[C@@](O)(C(=O)CO)C[C@@H]3O[C@H]1C[C@H](N)[C@H](O)[C@H](C)O1 [Doxorubicin] + Cc1cc2ncnn2cc1Nc1ncc2c(n1)n(C1CCOCC1)c(=O)n2C [AZD7648] (first compound max 1 µM, 7x7, partner max 10 µM) | 0.0891 | 0.0828 | 0.0953 | 0.107 | 0.0331 | 0.0152 | 0.0341 | 0.0693 | 0.0376 | -0.0179 | 0.109 | 0.111 | 0.0829 | 0.0648 | 0.0173 | -0.002 | -0.0042 | 0.0742 | 0.0953 | 0.0271
9 | COc1cc2ncnc(Nc3ccc(F)c(Cl)c3)c2cc1OCCCN1CCOCC1 [Gefitinib] + CC(C)n1c(=O)n(C)c2cnc3cc(F)c(-c4ccc(OCCCN5CCCCC5)nc4)cc3c21 [AZD1390] (first compound max 10 µM, 7x7, partner max 0.3 µM) | -0.0442 | -0.0706 | -0.0643 | -0.013 | -0.0546 | -0.0805 | -0.0828 | -0.127 | -0.0568 | -0.0502 | -0.0668 | -0.0408 | -0.0537 | -0.0834 | -0.0594 | -0.0548 | -0.0597 | -0.0402 | -0.0778 | -0.0451
10 | CS(=O)(=O)CCNCc1ccc(-c2ccc3ncnc(Nc4ccc(OCc5cccc(F)c5)c(Cl)c4)c3c2)o1 [Lapatinib] + C[C@@H](Oc1cc(-c2cnn(C3CCNCC3)c2)cnc1N)c1c(Cl)ccc(F)c1Cl [Crizotinib] (first compound max 10 µM, 7x7, partner max 10 µM) | 0.0028 | -0.021 | -0.0827 | -0.0444 | -0.0352 | -0.0205 | -0.0342 | -0.0124 | 0.0066 | -0.0192 | -0.0296 | -0.0501 | -0.0207 | -0.0355 | 0.0032 | -0.0215 | -0.0396 | -0.0172 | -0.037 | -0.0055
11 | CC(=O)c1c(C)c2cnc(Nc3ccc(N4CCNCC4)cn3)nc2n(C2CCCC2)c1=O [Palbociclib] + CC1(C)CCC(CN2CCN(c3ccc(C(=O)NS(=O)(=O)c4ccc(NCC5CCOCC5)c([N+](=O)[O-])c4)c(Oc4cnc5[nH]ccc5c4)c3)CC2)=C(c2ccc(Cl)cc2)C1 [Venetoclax] (first compound max 10 µM, 7x7, partner max 1 µM) | -0.0128 | 0.0004 | 0.0627 | -0.0394 | 0.0238 | -0.0586 | -0.0574 | 0.0552 | -0.0311 | 0.0118 | 0.0031 | -0.0396 | -0.0086 | -0.0225 | 0.0075 | -0.0355 | -0.0521 | -0.102 | 0.0021 | -0.0474
12 | CC(=O)c1c(C)c2cnc(Nc3ccc(N4CCNCC4)cn3)nc2n(C2CCCC2)c1=O [Palbociclib] + Cc1c2c(nn1C)CSCc1cc(n(C)n1)CSc1cc(c3ccccc3c1)OCCCc1c(C(=O)O)n(C)c3c-2c(Cl)ccc13 [AZD5991] (first compound max 10 µM, 7x7, partner max 1 µM) | -0.0997 | -0.0991 | 0.0045 | -0.0123 | -0.0658 | -0.111 | -0.0484 | -0.152 | -0.0346 | 0.0444 | -0.0193 | -0.0081 | -0.0324 | -0.0278 | 0.0346 | -0.082 | -0.0149 | 0.054 | -0.105 | -0.0346
13 | CC(=O)c1c(C)c2cnc(Nc3ccc(N4CCNCC4)cn3)nc2n(C2CCCC2)c1=O [Palbociclib] + Cn1cnc2c(F)c(Nc3ccc(Br)cc3Cl)c(C(=O)NOCCO)cc21 [Selumetinib] (first compound max 10 µM, 7x7, partner max 10 µM) | 0.0254 | 0.0049 | 0.0409 | -0.0734 | 0.0789 | 0.0042 | -0.035 | -0.0354 | -0.0287 | 0.008 | 0.043 | 0.0312 | -0.0805 | 0.127 | -0.0272 | 0.0167 | -0.016 | 0.0136 | -0.0657 | -0.0039
14 | COc1cccc(OCCCN)c1-c1cc(Nc2cnc(C#N)cn2)n[nH]1 [Prexasertib] + C=CCn1c(=O)c2cnc(Nc3ccc(N4CCN(C)CC4)cc3)nc2n1-c1cccc(C(C)(C)O)n1 [AZD1775] (first compound max 1 µM, partner max 1 µM) | 0.178 | 0.0413 | 0.047 | 0.05 | 0.0242 | -0.0049 | 0.0545 | 0.0149 | 0.0788 | 0.0712 | -0.0038 | 0.0128 | 0.235 | 0.149 | 0.072 | 0.112 | 0.032 | 0.0708 | -0.0251 | 0.107
15 | COc1cccc(OCCCN)c1-c1cc(Nc2cnc(C#N)cn2)n[nH]1 [Prexasertib] + CCc1c2c(nc3ccc(O)cc13)-c1cc3c(c(=O)n1C2)COC(=O)[C@]3(O)CC [SN-38] (first compound max 1 µM, 7x7, partner max 0.3 µM) | -0.0507 | -0.0767 | -0.078 | 0.0188 | 0.0461 | 0.0161 | -0.0068 | -0.0005 | -0.0697 | -0.0116 | -0.0583 | -0.0868 | 0.0624 | 0.135 | 0.0121 | 0.0285 | -0.058 | 0.0222 | -0.0594 | 0.116

— the supplement of paper PMC11061612
